Values of other authors in patent US7393954B2 (Reliable Biopharmaceutical Corporation, priority 2002, dated 2008).

How the values were obtained:
[1] = system: chronic lymphocytic leukemia; conditions: result in words
hairy cell leukemia = conditions: result in words

In the case of `OC[C@H]1O[C@@H](n2cnc3c2N=CNC[C@H]3O)C[C@@H]1O` [Pentostatin], the “efficacy against chronic lymphocytic leukemia” value [1] is given as “effective”, the “efficacy in treatment of interferon-refractory hairy cell leukemia” value (hairy cell leukemia; interferon-refractory, approved agent) is given as “highly effective” and the “efficacy against hairy cell leukemia” value (hairy cell leukemia) is given as “effective”.
